In patent US7888293B2, “Compositions and methods relating to orthogonal ribosome mRNA pairs” (priority 2005, dated 2011):

Key:
Type in all cases: cell-based, E. coli
O-mRNA-Cα and O-mRNA-Aω = assay: Boolean AND gate, β-galactosidase FDG fluorescence; conditions: BW26444 cells
Description: The AND function was created in BW26444 cells, which are deleted in lacZ. Their genotype is (Δ(araD-araB)567, Δ(lacA-lacZ)519(::FRT), laclp-4000(lacl^Q), λ^−, rpoS396(Am), rph-1, Δ(rhaD-rhaB)568, hsdR514). Heat shock competent BW26444 cells containing the logic gate plasmid were prepared by standard CaCl2 treatment, and combinations of rRNA inputs accessed by double transformation. Transformed cells were recovered in SOB with 2% glucose and transferred to LB agar containing 2% glucose, 50 μg ml^−1 ampicillin, 25 μg ml^−1 kanamycin, 12.5 μg ml^−1 tetracycline and incubated (16 h, 37° C.). Individual colonies were transferred to each well of a 96 well culture block containing 100 μl of media (LB containing 2% glucose, 50 μg ml^−1 ampicillin, 25 μg ml^−1 kanamycin, 12.5 μg ml^−1 tetracycline) and grown overnight. Cells were pelleted by centrifugation (3000 g, 5 min) and resuspended in 1 ml of LB containing 50 μg ml^−1 ampicillin, 25 μg ml^−1 kanamycin, 12.5 μg ml^−1 tetracycline. After a further 1 h incubation (37° C., 250 rpm) cells were supplemented with isopropyl-β-D-thiogalactopyranoside (to 1 mM), and incubated (37° C., 250 rpm, 4 h) and the OD600 measured. […] An equal volume of 2× buffer Z (120 mM Na2HPO4, 80 mM NaH2PO4, 20 mM KCl, 2 mM MgSO4, 100 mM β-mercaptoethanol) containing fluorescein di-β-D-galactopyranoside (Molecular Probes, final concentration 0.5 mM) was added and incubated (22° C.) until a strong fluorescent signal was detected (approximately 5 min). […] Fluorescence was detected using a Spectra Max Gemini XS (Molecular Devices), with excitation at […] and emission detection at 450 nm.
Fluorescence was normalized for cell density and time of incubation with β-galactosidase substrate, using the equation: Fluorescence=1000×(raw fluorescence450 nm)/(t.V.OD600) Where (t) is time of incubation in seconds and (V) is the volume of culture used. […]
Cells containing a plasmid encoding both O-mRNA-Cα and O-mRNA-Aω were programmed with either wild-type rRNA, rRNA-A, rRNA-C or rRNA-C and rRNA-A together, and the conversion of FDG to fluorescein measured. […]

O-mRNA-Aα and O-mRNA-Cα = assay: Boolean OR gate, β-galactosidase FDG fluorescence; conditions: OR gate, DH10B
O-mRNA-Ccat = assay: Translation of cat from O-mRNA-Ccat, chloramphenicol resistance, compatible rRNA plasmids
Excerpt: The RSF rRNA expression plasmid was derived from the previously described Col E1 expression plasmid (pTrc16S23S; Rackham & Chin, 2005, Nature Chem. Biol. 1: 159-166). The RSF1030 replicon, containing a kanamycin resistance gene, was amplified by PCR from pRSFDuet-1 (Novagen) using the oligonucleotides 5′-[…]-3′(SEQ ID NO: 120) and 5′-[…]-3′ (SEQ ID NO: 121). The resulting PCR product was digested with Kpn I and Sph I and used to replace the Kpn I, Sph I replicon-containing portion of pTrc 16S23S ribosome plasmids. CAT activity assays for orthogonal ribosome activity were performed as described in Rackham & Chin, 2005, supra).
One vector for rRNA production has a ColE1 origin of replication and an ampicillin resistance gene and is present at about 50 copies per cell. A second vector for rRNA production has an RSF origin of replication and a kanamycin resistance gene, and is present at about 100 copies per cell. […] To ascertain the effect of plasmid flanking sequences and plasmid copy number on the activity of the O-ribosomes incorporating plasmid-encoded rRNA, the translation of the chloramphenicol acetyl transferase gene (cat) from O-mRNA-Ccat (a version of cat with the 5′ orthogonal ribosome binding site C) was measured. […]

Row | Substance | fluorescence (conversion of FDG to fluorescein) (O-mRNA-Cα and O-mRNA-Aω) | fluorescence signal above background (O-mRNA-Aα and O-mRNA-Cα) [fold] | IC50 chloramphenicol resistance (O-mRNA-Ccat; ColE1 plasmid) [µg/mL] | IC50 chloramphenicol resistance (O-mRNA-Ccat; RSF plasmid) [µg/mL] | fluorescence (O-mRNA-Aα and O-mRNA-Cα)
1 | rRNA-A: O-rRNA-A, SEQ ID NO:125, orthogonal 16S rRNA cognate to O-mRNA-A; probably rRNA-2 (AUCACUGUGGUA; expressed or natural sequence) | low fluorescence | 10 |  |  | 
2 | rRNA-C: O-rRNA-C, SEQ ID NO:129, orthogonal 16S rRNA cognate to O-mRNA-C; probably rRNA-9 (AUCAUGGGAUUA; expressed or natural sequence) | low fluorescence | 15 | 150 | 250 | 
3 | wild-type rRNA: wild-type 16S rRNA, SEQ ID NO:116, plasmid-encoded control input (AUCACCUCCUUA; listed as Escherichia coli) [reference compound] | low fluorescence |  |  |  | comparable to that observed in the absence of plasmid-encoded a fragment
